Measurements as given in PubChem BioAssay AID1963865 (Molecular Pharmacology Branch, DTP, NCI, 2024).

Test system: KRAS PDC multicell spheroid viability
Assay: Anticancer human tumor 825966-067-R-J1-PDC patient-derived colon carcinoma cell line growth inhibition [KRAS2]
Conditions: for IC50: curve of first compound; for viability, T/C: stronger effect = lower value
In short: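 KRAS-mutant tumor cells were grown as spheroids with HUVEC endothelial cells and human MSCs as stroma. Targeted agents were tested alone and with KRAS pathway inhibitors. Doses started at or near clinical Cmax, or 10 microM, descending half-log.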

[1] = second compound 0.0316 µM, first compound 0.0316 µM
[2] = second compound 0.0316 µM, first compound 0.1 µM
[3] = second compound 0.0316 µM, first compound 0.316 µM
[4] = second compound 0.0316 µM, first compound 1 µM
[5] = second compound 0.0316 µM, first compound 3.16 µM
[6] = second compound 0.0316 µM, first compound 10 µM
[7] = second compound 0.1 µM, first compound 0.0316 µM
[8] = second compound 0.1 µM, first compound 0.1 µM
[9] = second compound 0.1 µM, first compound 0.316 µM
[10] = second compound 0.1 µM, first compound 1 µM
[11] = second compound 0.1 µM, first compound 3.16 µM
[12] = second compound 0.1 µM, first compound 10 µM
[13] = second compound 0.316 µM, first compound 0.0316 µM
[14] = second compound 0.316 µM, first compound 0.1 µM
[15] = second compound 0.316 µM, first compound 0.316 µM
[16] = second compound 0.316 µM, first compound 1 µM
[17] = second compound 0.316 µM, first compound 3.16 µM
[18] = second compound 0.316 µM, first compound 10 µM
[19] = second compound 1 µM, first compound 0.0316 µM
[20] = second compound 1 µM, first compound 0.1 µM
[21] = second compound 1 µM, first compound 0.316 µM
[22] = second compound 1 µM, first compound 1 µM
[23] = second compound 1 µM, first compound 3.16 µM
[24] = second compound 1 µM, first compound 10 µM
[25] = second compound 3.16 µM, first compound 0.0316 µM
[26] = second compound 3.16 µM, first compound 0.1 µM
[27] = second compound 3.16 µM, first compound 0.316 µM
[28] = second compound 3.16 µM, first compound 1 µM
[29] = second compound 3.16 µM, first compound 3.16 µM
[30] = second compound 3.16 µM, first compound 10 µM
[31] = second compound 0.0316 µM, first compound 0.00316 µM
[32] = second compound 0.0316 µM, first compound 0.01 µM
[33] = second compound 0.1 µM, first compound 0.00316 µM
[34] = second compound 0.1 µM, first compound 0.01 µM
[35] = second compound 0.316 µM, first compound 0.00316 µM
[36] = second compound 0.316 µM, first compound 0.01 µM
[37] = second compound 1 µM, first compound 0.00316 µM
[38] = second compound 1 µM, first compound 0.01 µM
[39] = second compound 3.16 µM, first compound 0.00316 µM
[40] = second compound 3.16 µM, first compound 0.01 µM
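Also: spheroids exposed to compounds for 7 days.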
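For viability, T/C in this document: 100% = DMSO vehicle control viability.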

Row | Structure (SMILES) | IC50 (second compound 0.0316 µM) | IC50 (second compound 0.1 µM) | IC50 (second compound 0.316 µM) | IC50 (second compound 1 µM) | IC50 (second compound 3.16 µM) | viability, T/C [1] | viability, T/C [2] | viability, T/C [3] | viability, T/C [4] | viability, T/C [7] | viability, T/C [8] | viability, T/C [9] | viability, T/C [10] | viability, T/C [13] | viability, T/C [14] | viability, T/C [15] | viability, T/C [19] | viability, T/C [20] | viability, T/C [25] | viability, T/C [26] | further results
1 | CC(C)NCC(C(=O)N1CCN(c2ncnc3c2C(C)CC3O)CC1)c1ccc(Cl)cc1 (stereo not given) + C=CC(=O)N1CCN(c2nc(OCC3CCCN3C)nc3c2CCN(c2cccc4cccc(C)c24)C3)CC1CC#N | 2180 nM | 2430 nM | 2140 nM | 1870 nM | 447 nM | 105% | 114% | 131% | 94.2% | 83.8% | 99.2% | 126% | 126% | 87.7% | 118% | 137% | 86.9% | 98.3% | 84.5% | 56.9% | viability, T/C [5]: 29.3%; viability, T/C [6]: 10.8%; viability, T/C [11]: 32.3%; viability, T/C [12]: 9.94%; viability, T/C [16]: 101%; viability, T/C [17]: 23.3%; viability, T/C [18]: 9.48%; viability, T/C [21]: 124%; viability, T/C [22]: 88.1%; viability, T/C [23]: 17.6%; viability, T/C [24]: 5.49%; viability, T/C [27]: 66%; viability, T/C [28]: 13.9%; viability, T/C [29]: 2.27%; viability, T/C [30]: 0.81%
2 | CC1(C)CCC(CN2CCN(c3ccc(C(=O)NS(=O)(=O)c4ccc(NCC5CCOCC5)c([N+](=O)[O-])c4)c(Oc4cnc5[nH]ccc5c4)c3)CC2)=C(c2ccc(Cl)cc2)C1 + C=CC(=O)N1CCN(c2nc(OCC3CCCN3C)nc3c2CCN(c2cccc4cccc(C)c24)C3)CC1CC#N | 1850 nM | 1790 nM | 1770 nM | 1810 nM | 347 nM | 104% | 96% | 84.3% | 93% | 96.7% | 72% | 98.6% | 96.3% | 93.8% | 88.8% | 87.9% | 98.6% | 103% | 89% | 78.2% | viability, T/C [5]: 12.6%; viability, T/C [6]: 0.73%; viability, T/C [11]: 9.74%; viability, T/C [12]: 5.69%; viability, T/C [16]: 93.4%; viability, T/C [17]: 8.01%; viability, T/C [18]: 5.23%; viability, T/C [21]: 100%; viability, T/C [22]: 104%; viability, T/C [23]: 1.8%; viability, T/C [24]: 0.52%; viability, T/C [27]: 54.7%; viability, T/C [28]: 10.2%; viability, T/C [29]: 0.3%; viability, T/C [30]: 2.95%
3 | CCN1CCN(Cc2ccc(Nc3ncc(F)c(-c4cc(F)c5nc(C)n(C(C)C)c5c4)n3)nc2)CC1 + C=CC(=O)N1CCN(c2nc(OCC3CCCN3C)nc3c2CCN(c2cccc4cccc(C)c24)C3)CC1CC#N | > 1000 nM | > 1000 nM | > 1000 nM | > 1000 nM | 397 nM | 91% | 113% | 158% | 153% | 108% | 165% | 198% | 123% | 119% | 86.5% | 160% | 102% | 166% | 133% | 125% | viability, T/C [31]: 93.5%; viability, T/C [32]: 112%; viability, T/C [33]: 97.1%; viability, T/C [34]: 114%; viability, T/C [35]: 103%; viability, T/C [36]: 105%; viability, T/C [16]: 115%; viability, T/C [37]: 95.7%; viability, T/C [38]: 110%; viability, T/C [21]: 167%; viability, T/C [22]: 112%; viability, T/C [39]: 83.7%; viability, T/C [40]: 114%; viability, T/C [27]: 61.6%; viability, T/C [28]: 2.39%
4 | Cn1ncnc1[C@H]1c2n[nH]c(=O)c3cc(F)cc(c23)N[C@@H]1c1ccc(F)cc1 + C=CC(=O)N1CCN(c2nc(OCC3CCCN3C)nc3c2CCN(c2cccc4cccc(C)c24)C3)CC1CC#N | > 100 nM | > 100 nM | > 100 nM | > 100 nM | > 100 nM | 85.2% | 82.5% |  |  | 81.5% | 77% |  |  | 91.4% | 82.5% |  | 112% | 98.9% | 84.6% | 102% | viability, T/C (second compound 0.0316 µM, first compound 0.000316 µM): 108%; viability, T/C (second compound 0.0316 µM, first compound 0.001 µM): 108%; viability, T/C [31]: 91.5%; viability, T/C [32]: 78%; viability, T/C (second compound 0.1 µM, first compound 0.000316 µM): 86.3%; viability, T/C (second compound 0.1 µM, first compound 0.001 µM): 106%; viability, T/C [33]: 119%; viability, T/C [34]: 80%; viability, T/C (second compound 0.316 µM, first compound 0.000316 µM): 120%; viability, T/C (second compound 0.316 µM, first compound 0.001 µM): 103%; viability, T/C [35]: 133%; viability, T/C [36]: 88.1%; viability, T/C (second compound 1 µM, first compound 0.000316 µM): 127%; viability, T/C (second compound 1 µM, first compound 0.001 µM): 103%; viability, T/C [37]: 98.6%; viability, T/C [38]: 91.3%; viability, T/C (second compound 3.16 µM, first compound 0.000316 µM): 86.5%; viability, T/C (second compound 3.16 µM, first compound 0.001 µM): 123%; viability, T/C [39]: 112%; viability, T/C [40]: 120%
